Measured values published in ChEMBL document CHEMBL4433198, “Fragment-to-Lead Medicinal Chemistry Publications in 2017” (J Med Chem, 2019).

Molecular target: Induced myeloid leukemia cell differentiation protein Mcl-1 (Homo sapiens, UniProt Q07820)
Test: Binding affinity to MCL1 (unknown origin) assessed as inhibition of Mcl1-FAMbid protein-protein interaction after 1 min by fluorescence polarization assay

Chain of Induced myeloid leukemia cell differentiation protein Mcl-1 (Q07820 whole entry): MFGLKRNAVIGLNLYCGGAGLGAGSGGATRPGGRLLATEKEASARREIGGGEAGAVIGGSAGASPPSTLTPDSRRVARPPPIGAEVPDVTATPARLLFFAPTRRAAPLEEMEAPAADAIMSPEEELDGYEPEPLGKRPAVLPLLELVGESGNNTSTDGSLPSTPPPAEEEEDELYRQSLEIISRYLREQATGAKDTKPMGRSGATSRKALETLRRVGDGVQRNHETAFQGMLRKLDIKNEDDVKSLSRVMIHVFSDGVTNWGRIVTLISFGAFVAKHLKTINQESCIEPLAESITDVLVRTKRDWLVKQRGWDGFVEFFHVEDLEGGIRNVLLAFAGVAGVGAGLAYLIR

- Kd: 480 nM
SMILES: O=C(O)c1cc2ccccc2n1S(=O)(=O)c1ccc(OCc2cccc(Cl)c2)cc1
